Legend:
[1] = system: immobilized TSP-1 (thrombospondin from human platelets); experiment: ELISA binding of biotin-labeled peptides to immobilized TSP-1; conditions: biotin-labeled peptide 10 μg/mL, 3 h, room temperature, 0.5% BSA; absorbance 450 nm; n = 3 in triplicate
Protocol: Microtiter plates (Nunc, ThermoFisher Scientific, Courtaboeuf, France) were coated overnight at 4°C with 0.5 μg TSP-1 in sodium carbonate-bicarbonate (BupH) buffer (Thermo Fisher Scientific). Plates were washed with PBS 0.1% BSA (Sigma-Aldrich) and non-specific sites were saturated during 30 min using 1% (w/v) BSA in BupH buffer. Biotin-labeled peptide (10 μg/mL, determined after dose-response assay from 0.01 to 100 μg/mL) was added in buffer containing 0.5% (w/v) BSA and incubated for 3 h at room temperature. Non-labeled peptide (0.001 to 5 mg/mL) was used as selective competitor. Plates were washed with PBS containing 0.1% (w/v) BSA and treated for 30 min with mouse anti-biotin antibody. Bound antibody was quantified using the mouse IgG Elite Vectastain ABC kit (Vector Laboratories) followed by incubation with 1-Step Turbo TMB substrate as a chromogen (ThermoFisher Scientific). The reaction was stopped with 0.5 M H2SO4 and absorbance was read at 450 nm.

HUVECs [2] = experiment: Boyden chamber / Transwell migration assay; assay type: cell-based, human
Protocol: Figure 2 TAX2 peptide impairs endothelial cell migration and inhibits angiogenesis in vitro and ex vivo A. HUVECs were treated with TAX2 (100 μM) or scrambled peptide (Ctrl, 100 μM). CD47 was immunoprecipitated from total protein lysates using anti-CD47 (clone B6H12) and non-specific IgGs were used as a negative control. Immunocomplexes were then submitted to SDS-PAGE and immunoblotted (IB) using specific TSP-1 and CD47 antibodies. Histogram represents the quantification of co-immunoprecipitated TSP-1 relative to immunoprecipitated CD47. Results are expressed as percentage compared to control (n = 3 separate experiments, t test). B. HUVECs (1 × 10^5 per well) were grown at confluence and then cell proliferation was inhibited by incubating with 10 μg/mL mitomycin C for 2 h. Migration assays were performed for 9 h with or without TAX2 peptide (100 μM), as described in Materials and Methods. Photographs (100×) were taken every 3 h. Graph represents the quantification of the wounded area. […] Hoechst-stained migrating cells attached on outside surface of the top chamber were photographed (20× objective) and counted. Results are expressed as percentage of migrated cells as compared to control. […] After 8 h incubation, HUVEC tube-like formation was observed on an inverted microscope (40×) and quantification of network total length was done using ImageJ software. […] Data are expressed as the mean ± SE from at least 3 independent experiments, each performed in triplicate. […] The transcriptional level of TSP-1 was assessed by RT-PCR and normalized to β-actin. […] After 6 days incubation in the presence of 100 μM TAX2 or control peptide (Ctrl), images were taken with an inverted microscope (40×) and microvessel area was quantified using ImageJ software. […]
(§1) Figure 3 Anti-angiogenic properties of TAX2 are mediated by TSP-1 binding to CD36 A. Expression of CD36 in HUVECs was assessed by immunoblotting (left panel) and immunofluorescence staining (right panel, red). […] The presence of TSP-1 in immunocomplexes was quantified by densitometric analysis relative to immunoprecipitated CD36. […]

HUVECs [3] = experiment: Endothelial tube formation assay on matrigel; assay type: cell-based, human
Protocol: Figure 2 TAX2 peptide impairs endothelial cell migration and inhibits angiogenesis in vitro and ex vivo A. HUVECs were treated with TAX2 (100 μM) or scrambled peptide (Ctrl, 100 μM). CD47 was immunoprecipitated from total protein lysates using anti-CD47 (clone B6H12) and non-specific IgGs were used as a negative control. Immunocomplexes were then submitted to SDS-PAGE and immunoblotted (IB) using specific TSP-1 and CD47 antibodies. Histogram represents the quantification of co-immunoprecipitated TSP-1 relative to immunoprecipitated CD47. Results are expressed as percentage compared to control (n = 3 separate experiments, t test). B. HUVECs (1 × 10^5 per well) were grown at confluence and then cell proliferation was inhibited by incubating with 10 μg/mL mitomycin C for 2 h. Migration assays were performed for 9 h with or without TAX2 peptide (100 μM), as described in Materials and Methods. Photographs (100×) were taken every 3 h. Graph represents the quantification of the wounded area. Each value is the mean of 3 independent experiments, each performed in quadruplicate. C. HUVECs (5 × 10^4 per well) were plated into the upper compartment of a Transwell membrane and incubated for 12 h in EGM-2 in the presence of 100 μM TAX2 peptide. Hoechst-stained migrating cells attached on outside surface of the top chamber were photographed (20× objective) and counted. Results are expressed as percentage of migrated cells as compared to control. Each value represents the mean of 5 independent experiments, each performed in triplicate.*p < 0.05, compared to control; t test. D. HUVECs (5 × 10^4) were cultured on matrigel layers in control conditions (Ctrl) or in the presence of TAX2. After 8 h incubation, HUVEC tube-like formation was observed on an inverted microscope (40×) and quantification of network total length was done using ImageJ software. Numeration of branching points, tubes and nodal structures was conducted using S.CORE system. Data are expressed as the mean ± SE from at least 3 independent experiments, each performed in triplicate. […] F. Total RNAs were purified from HUVECs transfected with non-silencing siRNA (siCtrl) or siRNA targeting TSP-1 (siTSP-1). The transcriptional level of TSP-1 was assessed by RT-PCR and normalized to β-actin. […] After 6 days incubation in the presence of 100 μM TAX2 or control peptide (Ctrl), images were taken with an inverted microscope (40×) and microvessel area was quantified using ImageJ software. […]
as §1

[4] = system: microvessel sprouting from mouse aortic rings (C57BL/6); experiment: Mouse aortic ring assay (ex vivo); conditions: 100 μM, 6 days, mouse aortic ring in matrigel
Protocol: Figure 2 TAX2 peptide impairs endothelial cell migration and inhibits angiogenesis in vitro and ex vivo A. HUVECs were treated with TAX2 (100 μM) or scrambled peptide (Ctrl, 100 μM). CD47 was immunoprecipitated from total protein lysates using anti-CD47 (clone B6H12) and non-specific IgGs were used as a negative control. Immunocomplexes were then submitted to SDS-PAGE and immunoblotted (IB) using specific TSP-1 and CD47 antibodies. Histogram represents the quantification of co-immunoprecipitated TSP-1 relative to immunoprecipitated CD47. Results are expressed as percentage compared to control (n = 3 separate experiments, t test). B. HUVECs (1 × 10^5 per well) were grown at confluence and then cell proliferation was inhibited by incubating with 10 μg/mL mitomycin C for 2 h. […] Graph represents the quantification of the wounded area. […] Hoechst-stained migrating cells attached on outside surface of the top chamber were photographed (20× objective) and counted. Results are expressed as percentage of migrated cells as compared to control. […] After 8 h incubation, HUVEC tube-like formation was observed on an inverted microscope (40×) and quantification of network total length was done using ImageJ software. […] Data are expressed as the mean ± SE from at least 3 independent experiments, each performed in triplicate. […] The transcriptional level of TSP-1 was assessed by RT-PCR and normalized to β-actin. […]

“CEVSQLLKGDAC (disulfide) [TAX2, CD47-derived cyclic disulfide dodecapeptide …]” was tested, and the “binding to immobilized TSP-1” value [1] was “binds to immobilized TSP-1”, the “inhibition of endothelial cell migration (Boyden chamber)” value (HUVECs [2]; HUVECs, 100 μM, 12 h, EGM-2, mean of 5 in triplicate) was 50% and the “prevention of endothelial cell migration in presence of CD36 blocking antibody” value (HUVECs [2]; HUVECs, 100 μM, 12 h, anti-CD36 10 μg/mL, n = 3) was “wholly reversed”. The “concentration of optimal inhibition of endothelial cell migration” value (HUVECs [2]; dose-response assay, data not shown, migration format not specified) was 100 µM, the “formation of branching points, capillary tubes and nodal structures” value (HUVECs [3]; HUVECs on matrigel, 8 h, S.CORE) was “decreased” and the “inhibition of pseudo-tube network formation (total network length)” value (HUVECs [3]; HUVECs on matrigel, 8 h, at least 3 experiments in triplicate) was 40%. For the same sequence, the “effect on lumen formation under TSP-1 gene silencing” value (HUVECs [3]; HUVECs transfected with siTSP-1, matrigel, 8 h) was “wholly abolished”, the “prevention of capillary structure formation in presence of CD36 blocking antibody” value (HUVECs [3]; HUVECs, 100 μM, 12 h, anti-CD36 blocking antibody, n = 3) was “wholly reversed” and the “microvessel sprouting from the aorta” value [4] was “markedly inhibited”.

From article PMC4627230, “Identification of TAX2 peptide as a new unpredicted anti-cancer agent” (Oncotarget, 2015)
